Experiments:
Type in all cases: functional
NCI-H322M = experiment: Growth inhibition of human NCI-H322M cells assessed as cell growth at 10 uM by sulforhodamine B assay; details: read-out: Activity
RXF 393 = experiment: Growth inhibition of human RXF393 cells assessed as growth inhibition at 10 uM by sulforhodamine B assay; details: read-out: GI
SK-MEL-2 = experiment: Growth inhibition of human SK-MEL-2 cells assessed as cell growth at 10 uM by sulforhodamine B assay; details: read-out: Activity
TK-10 [1] = experiment: Growth inhibition of human TK10 cells assessed as cell growth at 10 uM by sulforhodamine B assay; details: read-out: Activity
UO-31 = experiment: Growth inhibition of human UO31 cells assessed as growth inhibition at 10 uM by sulforhodamine B assay; details: read-out: GI
ACHN = experiment: Growth inhibition of human ACHN cells assessed as growth inhibition at 10 uM by sulforhodamine B assay; details: read-out: GI
HCT-116 [2] = experiment: Growth inhibition of human HCT116 cells assessed as cell growth at 10 uM by sulforhodamine B assay; details: read-out: Activity
HL-60(TB) = experiment: Growth inhibition of human HL-60(TB) cells assessed as cell growth at 10 uM by sulforhodamine B assay; details: read-out: Activity
A549 = experiment: Growth inhibition of human A549/ATCC cells assessed as growth inhibition at 10 uM by sulforhodamine B assay; details: read-out: GI
SK-MEL-5 = experiment: Growth inhibition of human SK-MEL-5 cells assessed as cell growth at 10 uM by sulforhodamine B assay; details: read-out: Activity
A498 = experiment: Growth inhibition of human A498 cells assessed as growth inhibition at 10 uM by sulforhodamine B assay; details: read-out: GI
TK-10 [3] = experiment: Growth inhibition of human TK10 cells assessed as growth inhibition at 10 uM by sulforhodamine B assay; details: read-out: GI
HOP-62 = experiment: Growth inhibition of human HOP62 cells assessed as cell growth at 10 uM by sulforhodamine B assay; details: read-out: Activity
MCF7 = experiment: Growth inhibition of human MCF7 cells assessed as cell growth at 10 uM by sulforhodamine B assay; details: read-out: Activity
MOLT-4 = experiment: Growth inhibition of human MOLT4 cells assessed as cell growth at 10 uM by sulforhodamine B assay; details: read-out: Activity
786-0 [4] = experiment: Growth inhibition of human 786-0 cells assessed as cell growth at 10 uM by sulforhodamine B assay; details: read-out: Activity
SNB-19 = experiment: Growth inhibition of human SNB19 cells assessed as cell growth at 10 uM by sulforhodamine B assay; details: read-out: Activity
NCI-H23 [5] = experiment: Growth inhibition of human NCI-H23 cells assessed as cell growth at 10 uM by sulforhodamine B assay; details: read-out: Activity
NCI-H460 [6] = experiment: Growth inhibition of human NCI-H460 cells assessed as cell growth at 10 uM by sulforhodamine B assay; details: read-out: Activity
UACC-62 [7] = experiment: Growth inhibition of human UACC62 cells assessed as cell growth at 10 uM by sulforhodamine B assay; details: read-out: Activity
UACC-62 [8] = experiment: Growth inhibition of human UACC62 cells assessed as growth inhibition at 10 uM by sulforhodamine B assay; details: read-out: GI
NCI-H23 [9] = experiment: Growth inhibition of human NCI-H23 cells assessed as growth inhibition at 10 uM by sulforhodamine B assay; details: read-out: GI
SNB-75 = experiment: Growth inhibition of human SNB75 cells assessed as cell growth at 10 uM by sulforhodamine B assay; details: read-out: Activity
DU-145 = experiment: Growth inhibition of human DU145 cells assessed as cell growth at 10 uM by sulforhodamine B assay; details: read-out: Activity
HCT-15 = experiment: Growth inhibition of human HCT15 cells assessed as growth inhibition at 10 uM by sulforhodamine B assay; details: read-out: GI
MDA-MB-435 = experiment: Growth inhibition of human MDA-MB-435 cells assessed as cell growth at 10 uM by sulforhodamine B assay; details: read-out: Activity
SW-620 = experiment: Growth inhibition of human SW620 cells assessed as growth inhibition at 10 uM by sulforhodamine B assay; details: read-out: GI
Malme-3M = experiment: Growth inhibition of human MALME-3M cells assessed as growth inhibition at 10 uM by sulforhodamine B assay; details: read-out: GI
SK-MEL-28 = experiment: Growth inhibition of human SK-MEL-28 cells assessed as growth inhibition at 10 uM by sulforhodamine B assay; details: read-out: GI
BT-549 = experiment: Growth inhibition of human BT549 cells assessed as growth inhibition at 10 uM by sulforhodamine B assay; details: read-out: GI
SF-295 = experiment: Growth inhibition of human SF295 cells assessed as cell growth at 10 uM by sulforhodamine B assay; details: read-out: Activity
T47D = experiment: Growth inhibition of human T47D cells assessed as cell growth at 10 uM by sulforhodamine B assay; details: read-out: Activity
SR [10] = experiment: Growth inhibition of human SR cells assessed as growth inhibition at 10 uM by sulforhodamine B assay; details: read-out: GI
U-251 = experiment: Growth inhibition of human U251 cells assessed as growth inhibition at 10 uM by sulforhodamine B assay; details: read-out: GI
COLO 205 = experiment: Growth inhibition of human COLO205 cells assessed as cell growth at 10 uM by sulforhodamine B assay; details: read-out: Activity
OVCAR-5 = experiment: Growth inhibition of human OVCAR5 cells assessed as cell growth at 10 uM by sulforhodamine B assay; details: read-out: Activity
CCRF-CEM = experiment: Growth inhibition of human CCRF-CEM cells assessed as cell growth at 10 uM by sulforhodamine B assay; details: read-out: Activity
PC-3 = experiment: Growth inhibition of human PC3 cells assessed as cell growth at 10 uM by sulforhodamine B assay; details: read-out: Activity
SR [11] = experiment: Growth inhibition of human SR cells assessed as cell growth at 10 uM by sulforhodamine B assay; details: read-out: Activity
786-0 [12] = experiment: Growth inhibition of human 786-0 cells assessed as growth inhibition at 10 uM by sulforhodamine B assay; details: read-out: GI
[13] = Growth inhibition of human Hs 578T cells assessed as growth inhibition at 10 uM by sulforhodamine B assay; details: read-out: GI
IGROV-1 [14] = experiment: Growth inhibition of human IGROV1 cells assessed as cell growth at 10 uM by sulforhodamine B assay; details: read-out: Activity
NCI-H460 [15] = experiment: Growth inhibition of human NCI-H460 cells assessed as growth inhibition at 10 uM by sulforhodamine B assay; details: read-out: GI
HOP-92 [16] = experiment: Growth inhibition of human HOP92 cells assessed as growth inhibition at 10 uM by sulforhodamine B assay; details: read-out: GI
HOP-92 [17] = experiment: Growth inhibition of human HOP92 cells assessed as cell growth at 10 uM by sulforhodamine B assay; details: read-out: Activity
HCT-116 [18] = experiment: Growth inhibition of human HCT116 cells assessed as growth inhibition at 10 uM by sulforhodamine B assay; details: read-out: GI
[19] = Growth inhibition of human NCI-ADR-RES cells assessed as growth inhibition at 10 uM by sulforhodamine B assay; details: read-out: GI
IGROV-1 [20] = experiment: Growth inhibition of human IGROV1 cells assessed as growth inhibition at 10 uM by sulforhodamine B assay; details: read-out: GI
OVCAR-4 = experiment: Growth inhibition of human OVCAR4 cells assessed as cell growth at 10 uM by sulforhodamine B assay; details: read-out: Activity

## C/C=C(/C)C(=O)O[C@@H]1CC(C)(C)C[C@H]2C3=CC[C@@H]4[C@@]5(C)CCC(=O)C(C)(C)[C@@H]5CC[C@@]4(C)[C@]3(C)CC[C@@]12C(=O)O [LANTADENE A]
NCI-H322M
  growth at 10 µM: 68.5%
RXF 393
  inhibition of growth at 10 µM: 11.5%
SK-MEL-2
  growth at 10 µM: 77.1%
TK-10 [1]
  growth at 10 µM: 83.3%
UO-31
  inhibition of growth at 10 µM: 57.4%
ACHN
  inhibition of growth at 10 µM: 46.1%
HCT-116 [2]
  growth at 10 µM: 34%
HL-60(TB)
  growth at 10 µM: -5.42%
A549
  inhibition of growth at 10 µM: 60.8%
SK-MEL-5
  growth at 10 µM: 38.7%
A498
  inhibition of growth at 10 µM: 23.8%
TK-10 [3]
  inhibition of growth at 10 µM: 16.7%
HOP-62
  growth at 10 µM: 75.6%
MCF7
  growth at 10 µM: 54.7%
MOLT-4
  growth at 10 µM: 43.3%
786-0 [4]
  growth at 10 µM: 44.5%
SNB-19
  growth at 10 µM: 59.4%
NCI-H23 [5]
  growth at 10 µM: 58%
NCI-H460 [6]
  growth at 10 µM: 51.5%
UACC-62 [7]
  growth at 10 µM: 49.9%
UACC-62 [8]
  inhibition of growth at 10 µM: 50.1%
NCI-H23 [9]
  inhibition of growth at 10 µM: 42%
SNB-75
  growth at 10 µM: 86.9%
DU-145
  growth at 10 µM: 82.6%
HCT-15
  inhibition of growth at 10 µM: 69.8%
MDA-MB-435
  growth at 10 µM: 87.8%
SW-620
  inhibition of growth at 10 µM: 31.3%
Malme-3M
  inhibition of growth at 10 µM: 19.6%
SK-MEL-28
  inhibition of growth at 10 µM: 17.3%
BT-549
  inhibition of growth at 10 µM: 56%
SF-295
  growth at 10 µM: 27.6%
T47D
  growth at 10 µM: 63.9%
SR [10]
  inhibition of growth at 10 µM: 30.5%
U-251
  inhibition of growth at 10 µM: 39.9%
COLO 205
  growth at 10 µM: 78%
OVCAR-5
  growth at 10 µM: 92.4%
CCRF-CEM
  growth at 10 µM: 43.6%
PC-3
  growth at 10 µM: 37.2%
SR [11]
  growth at 10 µM: 69.5%
786-0 [12]
  inhibition of growth at 10 µM: 55.5%
[13]
  inhibition of growth at 10 µM: 21.2%
IGROV-1 [14]
  growth at 10 µM: 71.6%
NCI-H460 [15]
  inhibition of growth at 10 µM: 48.5%
HOP-92 [16]
  inhibition of growth at 10 µM: 56.3%
HOP-92 [17]
  growth at 10 µM: 43.7%
HCT-116 [18]
  inhibition of growth at 10 µM: 66%
[19]
  inhibition of growth at 10 µM: 26.9%
IGROV-1 [20]
  inhibition of growth at 10 µM: 28.4%
OVCAR-4
  growth at 10 µM: 76.9%

## CC(C)=CC(=O)O[C@@H]1CC(C)(C)C[C@H]2C3=CC[C@@H]4[C@@]5(C)CC[C@H](O)C(C)(C)[C@@H]5CC[C@@]4(C)[C@]3(C)CC[C@@]12C(=O)O [Reduced Lantadene B]
NCI-H322M
  growth at 10 µM: 59.7%
RXF 393
  inhibition of growth at 10 µM: 14.8%
SK-MEL-2
  growth at 10 µM: 86.5%
TK-10 [1]
  growth at 10 µM: 79.9%
UO-31
  inhibition of growth at 10 µM: 39.1%
ACHN
  inhibition of growth at 10 µM: 53.7%
HCT-116 [2]
  growth at 10 µM: 27.2%
HL-60(TB)
  growth at 10 µM: 14%
A549
  inhibition of growth at 10 µM: 76.5%
SK-MEL-5
  growth at 10 µM: 61.5%
A498
  inhibition of growth at 10 µM: < 10%
TK-10 [3]
  inhibition of growth at 10 µM: 20.1%
HOP-62
  growth at 10 µM: 53.7%
MCF7
  growth at 10 µM: 62.7%
MOLT-4
  growth at 10 µM: 49.6%
786-0 [4]
  growth at 10 µM: 61.8%
SNB-19
  growth at 10 µM: 85.6%
NCI-H23 [5]
  growth at 10 µM: 63.4%
NCI-H460 [6]
  growth at 10 µM: 50.3%
UACC-62 [7]
  growth at 10 µM: 67.2%
UACC-62 [8]
  inhibition of growth at 10 µM: 32.8%
NCI-H23 [9]
  inhibition of growth at 10 µM: 36.6%
SNB-75
  growth at 10 µM: 73.2%
DU-145
  growth at 10 µM: 86.6%
HCT-15
  inhibition of growth at 10 µM: 74.9%
MDA-MB-435
  growth at 10 µM: 95.3%
SW-620
  inhibition of growth at 10 µM: 33.1%
Malme-3M
  inhibition of growth at 10 µM: < 10%
SK-MEL-28
  inhibition of growth at 10 µM: 11.7%
BT-549
  inhibition of growth at 10 µM: 21.9%
SF-295
  growth at 10 µM: 44.6%
T47D
  growth at 10 µM: 86.7%
SR [10]
  inhibition of growth at 10 µM: 29.8%
U-251
  inhibition of growth at 10 µM: 60.8%
COLO 205
  growth at 10 µM: 68.1%
OVCAR-5
  growth at 10 µM: 119%
CCRF-CEM
  growth at 10 µM: 27.4%
PC-3
  growth at 10 µM: 45.4%
SR [11]
  growth at 10 µM: 70.2%
786-0 [12]
  inhibition of growth at 10 µM: 38.2%
[13]
  inhibition of growth at 10 µM: 14.5%
IGROV-1 [14]
  growth at 10 µM: 78.3%
NCI-H460 [15]
  inhibition of growth at 10 µM: 49.7%
HOP-92 [16]
  inhibition of growth at 10 µM: 57%
HOP-92 [17]
  growth at 10 µM: 43%
HCT-116 [18]
  inhibition of growth at 10 µM: 72.8%
[19]
  inhibition of growth at 10 µM: 45.5%
IGROV-1 [20]
  inhibition of growth at 10 µM: 21.7%
OVCAR-4
  growth at 10 µM: 70.7%
